A word on the IC50: it is the concentration needed to halve the response being measured. Usually CC50 stands for the concentration giving 50% cytotoxicity. Broadly, the AC50 is the concentration giving half of the maximal activity seen. One may read the EC50 as the concentration that produces a half-maximal response.

The target in one assay is Ephrin type-A receptor 4 (Mus musculus, UniProt Q03137). Briefly: EphA4 ligand-binding antagonists – biochemical, colorimetric, mouse EphA4, primary screen (AID 689). It counts as functional.
The target in a further assay is NADPH oxidase 1 (Homo sapiens, UniProt Q9Y5S8). Kind of assay: Late-stage luminescence-based cell-based dose response assay to identify inhibitors of NADPH oxidase 1 (NOX1): Purchased analogs 2. Type of assay: functional.
Assay [1] concerns Vero. Kind of assay: cells. Type of assay: functional, cell-based. Particulars: Chlorocebus sabaeus.
The test system of assay [2] is Vero. Kind of assay: mammalian cell viability reduction – secondary assay, cytotoxicity control for West Nile virus antiviral project, dose response (AID 1650). Type of assay: functional. The note with it: Chlorocebus sabaeus.
The nature of assay [3]: viability of uninfected HEp-2 cells – cell-based, HTS, cytotoxicity control for RSV inhibitor project, dose response (AID 2410). Particulars: human respiratory syncytial virus. It counts as functional.
The target in assay [4] is T1, Microphthalmia-associated transcription factor (Homo sapiens, UniProt O75030).
T1 sequence (O75030 whole entry): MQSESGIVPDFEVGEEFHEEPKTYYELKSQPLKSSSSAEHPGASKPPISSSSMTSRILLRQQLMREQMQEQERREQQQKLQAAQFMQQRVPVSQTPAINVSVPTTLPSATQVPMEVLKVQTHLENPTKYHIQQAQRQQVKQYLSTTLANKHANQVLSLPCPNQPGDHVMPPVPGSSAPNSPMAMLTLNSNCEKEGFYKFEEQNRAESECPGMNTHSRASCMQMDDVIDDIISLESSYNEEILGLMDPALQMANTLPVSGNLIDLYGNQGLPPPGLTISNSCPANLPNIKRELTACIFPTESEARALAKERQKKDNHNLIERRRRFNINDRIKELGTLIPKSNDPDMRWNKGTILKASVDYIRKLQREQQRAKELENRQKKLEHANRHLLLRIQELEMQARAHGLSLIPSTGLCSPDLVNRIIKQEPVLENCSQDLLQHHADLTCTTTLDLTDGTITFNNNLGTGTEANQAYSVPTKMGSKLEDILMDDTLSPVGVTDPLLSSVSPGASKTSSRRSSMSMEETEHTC
Kind of assay: reducers of TRPM1 reporter luminescence, concentration series – cell-based, SK-MEL-5, cherry-picked, set 3, MITF inhibitor project, dose response (AID 493073).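 Further: SK-MEL-5 melanoma cells with luciferase driven by the MITF target TRPM1 promoter.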 Type of assay: functional.

Assay [5] concerns Vero. Kind of assay: inhibition of WNV-induced cytopathic effect – cell-based, CPE readout (AID 1621). It counts as functional. The note with it: Chlorocebus sabaeus. A general note: Cytopathic effects are the visible damage that an infection or toxin causes in cultured cells.
The subject of assay [6] is Vero. Kind of assay: cells. Type of assay: functional. The note with it: Chlorocebus sabaeus.
A short description of another assay: cells. Type of assay: functional.
The target in assay [7] is Heat shock protein HSP 90-alpha (Homo sapiens, UniProt P07900). Type of assay: functional, organism-based.
Assay [8] can be described thus: NIH-3T3 fibroblast cytotoxicity, dose response, cytotoxicity control, cell-based, fluorescence, Alamar Blue, secondary assay (AID 2327).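 Further: NIH-3T3 mouse fibroblasts cultured with fluconazole at 8 µg/mL.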 It counts as functional.
A further assay has as its system INS1. Briefly: INS-1E survival protection against cytokine death – cell-based, luminescence, retest, dose response (AID 449756).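 Further: cell death triggered by IL-1 beta plus TNF-alpha plus IFN-gamma mixture; protective hits raise ATP signal compared with cytokine alone wells.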 The note with it: Rattus norvegicus. It counts as functional.
The nature of assay [9]: THP-1 cell cytotoxicity, dose response, cytotoxicity control for non-replicating M. tuberculosis project (AID 489025). Type of assay: functional.
A short description of assay [10]: Vero E6 cell cytotoxicity, dose response, cytotoxicity control for non-replicating M. tuberculosis project, secondary assay (AID 492998). It counts as functional, VeroE6. Particulars: Vero C1008.
Assay [11] in a line: fluconazole-exposed Candida albicans growth modulators – fluorescence, retest, confirmation (AID 2467). It counts as functional, cell-based.
A short description of assay [12]: HepG2 cell cytotoxicity, dose response, cytotoxicity control for non-replicating M. tuberculosis project (AID 489018). Type of assay: functional. The note with it: Mycobacterium tuberculosis.
The nature of assay [13]: Luminescent dose response cell-based high throughput screening assay for inhibitors of the Janus kinase 2 mutant JAK2V617F. [Related pubchem assays: 1446 (Primary screen.), 1521 (Confirmation assay.), 1486 (Counter screen.)]. Type of assay: functional. (In general: The purpose of a counterscreen is to sort out artefacts and off-target activity.)
The target of assay [14] is Serine/threonine-protein phosphatase PP1-alpha catalytic subunit (Homo sapiens, UniProt P62136). Briefly: inhibition of protein phosphatase 1 activity – biochemical, fluorescence, dose response (AID 2394).
Assay [15] concerns the target Serine/threonine-protein phosphatase (Homo sapiens, UniProt Q9BPW0). Kind of assay: inhibition of protein phosphatase 5 activity – biochemical, fluorescence, dose response (AID 2395).
Assay [16] deals with T2, Tyrosine-protein phosphatase non-receptor type 7 (Homo sapiens, UniProt P35236).
T2 sequence (P35236 whole entry): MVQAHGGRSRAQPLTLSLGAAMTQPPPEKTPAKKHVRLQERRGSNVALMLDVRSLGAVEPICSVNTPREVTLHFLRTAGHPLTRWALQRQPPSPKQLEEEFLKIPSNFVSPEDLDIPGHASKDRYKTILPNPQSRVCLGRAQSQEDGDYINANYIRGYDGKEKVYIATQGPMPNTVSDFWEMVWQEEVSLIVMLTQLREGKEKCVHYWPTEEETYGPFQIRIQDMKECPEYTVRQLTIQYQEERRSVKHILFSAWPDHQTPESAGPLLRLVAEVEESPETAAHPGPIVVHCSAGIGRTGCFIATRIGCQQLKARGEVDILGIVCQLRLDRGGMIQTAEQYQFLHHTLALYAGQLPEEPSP
Briefly: inhibition of hematopoietic tyrosine phosphatase HePTP – biochemical, set 2, SAR follow-up (AID 449736). Type of assay: functional.

The target in assay [17] is G-protein coupled receptor 35 (Homo sapiens, UniProt Q9HC97). Kind of assay: SAR Analysis for the identification of Selective Antagonists of ERK1/2 Activity in GPR35-Overexpressing U2OS Cells. [Related pubchem assays: 2079, 2058 ]. It counts as functional, cell-based.
Assay [18] deals with T3, Tyrosine-protein phosphatase non-receptor type 22 (Homo sapiens, UniProt Q9Y2R2).
T3 sequence (Q9Y2R2 whole entry): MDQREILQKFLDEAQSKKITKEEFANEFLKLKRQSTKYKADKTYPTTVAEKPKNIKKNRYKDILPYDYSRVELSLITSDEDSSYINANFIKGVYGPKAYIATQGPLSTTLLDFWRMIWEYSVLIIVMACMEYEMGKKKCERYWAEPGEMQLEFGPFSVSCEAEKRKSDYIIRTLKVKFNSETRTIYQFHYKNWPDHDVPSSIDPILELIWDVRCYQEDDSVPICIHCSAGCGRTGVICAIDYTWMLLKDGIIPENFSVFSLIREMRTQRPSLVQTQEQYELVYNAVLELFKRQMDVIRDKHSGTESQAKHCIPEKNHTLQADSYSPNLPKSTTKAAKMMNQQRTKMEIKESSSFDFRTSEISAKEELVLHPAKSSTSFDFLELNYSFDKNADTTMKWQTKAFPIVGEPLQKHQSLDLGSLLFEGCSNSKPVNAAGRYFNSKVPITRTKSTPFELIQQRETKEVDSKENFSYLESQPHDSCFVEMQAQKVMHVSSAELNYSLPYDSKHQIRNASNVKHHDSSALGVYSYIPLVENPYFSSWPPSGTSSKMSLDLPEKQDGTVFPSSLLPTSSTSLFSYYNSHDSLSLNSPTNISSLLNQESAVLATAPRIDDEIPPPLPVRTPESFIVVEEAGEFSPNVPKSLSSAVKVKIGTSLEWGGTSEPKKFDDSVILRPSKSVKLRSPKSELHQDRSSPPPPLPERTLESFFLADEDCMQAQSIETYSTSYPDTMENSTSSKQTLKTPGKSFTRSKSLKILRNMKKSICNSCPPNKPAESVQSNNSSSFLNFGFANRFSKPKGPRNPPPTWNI
Kind of assay: inhibition of lymphoid tyrosine phosphatase LYP – biochemical, pCAP fluorogenic substrate, fluorescence, set 3, SAR follow-up (AID 449727). Type of assay: functional.

The target of assay [19] is T3, Tyrosine-protein phosphatase non-receptor type 22. Briefly: SAR LYP1 Fluorescent Assay using OMFP substrate for In Vitro dose response studies - Set 3. [Related pubchem assays (depositor defined):AID1779, AID1784, AID2140, AID2686]. Type of assay: functional.
In assay [20] the target is Tyrosine-protein phosphatase non-receptor type 12 (Homo sapiens, UniProt Q05209). Kind of assay: SAR Selectivity Analysis of small molecule inhibitors of PEST using pCAP in a fluorescence assay. [Related pubchem assays (depositor defined):AID1779, AID1784, AID2135]. It counts as functional.
The target of assay [21] is G-protein coupled receptor 55 (Homo sapiens, UniProt Q9Y2T6). Kind of assay: blockers of GPR55 signalling, imaged – imaging, image-based, counter-screen for GPR35 antagonist project, SAR follow-up (AID 2397). Type of assay: functional.

Activity calls are given as the source filed them.

Sequence of G-protein coupled receptor 55 (Q9Y2T6 whole entry): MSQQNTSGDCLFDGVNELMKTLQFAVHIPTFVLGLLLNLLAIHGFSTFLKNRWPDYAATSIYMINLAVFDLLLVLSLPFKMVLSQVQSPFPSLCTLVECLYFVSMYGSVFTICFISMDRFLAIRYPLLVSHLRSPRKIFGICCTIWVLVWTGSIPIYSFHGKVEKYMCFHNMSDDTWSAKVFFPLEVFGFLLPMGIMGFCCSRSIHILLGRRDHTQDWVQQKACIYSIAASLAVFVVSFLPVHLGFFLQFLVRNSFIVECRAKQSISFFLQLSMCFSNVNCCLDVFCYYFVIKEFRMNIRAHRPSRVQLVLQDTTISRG
Sequence of Serine/threonine-protein phosphatase PP1-alpha catalytic subunit (P62136 whole entry): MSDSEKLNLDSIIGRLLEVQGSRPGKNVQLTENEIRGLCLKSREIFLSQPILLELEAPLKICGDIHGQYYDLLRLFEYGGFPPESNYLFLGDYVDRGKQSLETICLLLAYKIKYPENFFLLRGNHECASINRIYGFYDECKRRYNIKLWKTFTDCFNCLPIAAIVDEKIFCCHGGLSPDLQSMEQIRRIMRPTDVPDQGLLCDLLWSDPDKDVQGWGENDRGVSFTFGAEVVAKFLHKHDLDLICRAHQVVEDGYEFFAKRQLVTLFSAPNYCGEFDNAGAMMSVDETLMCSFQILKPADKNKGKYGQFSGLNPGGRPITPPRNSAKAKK
Sequence of Tyrosine-protein phosphatase non-receptor type 12 (Q05209 whole entry): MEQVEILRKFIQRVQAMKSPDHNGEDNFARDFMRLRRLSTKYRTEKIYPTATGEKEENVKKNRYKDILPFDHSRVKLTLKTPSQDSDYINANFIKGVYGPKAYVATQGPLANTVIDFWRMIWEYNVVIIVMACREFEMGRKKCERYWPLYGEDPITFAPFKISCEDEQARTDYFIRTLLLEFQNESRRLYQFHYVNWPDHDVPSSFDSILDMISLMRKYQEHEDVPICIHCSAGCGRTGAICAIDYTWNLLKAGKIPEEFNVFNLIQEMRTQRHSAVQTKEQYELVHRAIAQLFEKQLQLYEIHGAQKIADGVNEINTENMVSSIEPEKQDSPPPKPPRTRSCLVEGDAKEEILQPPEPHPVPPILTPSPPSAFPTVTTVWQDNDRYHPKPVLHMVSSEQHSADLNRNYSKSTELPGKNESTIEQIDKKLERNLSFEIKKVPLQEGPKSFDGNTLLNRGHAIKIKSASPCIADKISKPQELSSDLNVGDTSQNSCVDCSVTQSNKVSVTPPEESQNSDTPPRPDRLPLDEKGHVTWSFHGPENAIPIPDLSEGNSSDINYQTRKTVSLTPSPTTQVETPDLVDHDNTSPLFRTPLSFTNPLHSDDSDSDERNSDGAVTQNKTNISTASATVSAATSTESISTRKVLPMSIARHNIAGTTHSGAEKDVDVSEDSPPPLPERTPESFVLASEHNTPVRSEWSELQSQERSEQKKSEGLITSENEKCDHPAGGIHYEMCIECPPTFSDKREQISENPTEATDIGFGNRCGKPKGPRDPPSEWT
Sequence of NADPH oxidase 1 (Q9Y5S8 whole entry): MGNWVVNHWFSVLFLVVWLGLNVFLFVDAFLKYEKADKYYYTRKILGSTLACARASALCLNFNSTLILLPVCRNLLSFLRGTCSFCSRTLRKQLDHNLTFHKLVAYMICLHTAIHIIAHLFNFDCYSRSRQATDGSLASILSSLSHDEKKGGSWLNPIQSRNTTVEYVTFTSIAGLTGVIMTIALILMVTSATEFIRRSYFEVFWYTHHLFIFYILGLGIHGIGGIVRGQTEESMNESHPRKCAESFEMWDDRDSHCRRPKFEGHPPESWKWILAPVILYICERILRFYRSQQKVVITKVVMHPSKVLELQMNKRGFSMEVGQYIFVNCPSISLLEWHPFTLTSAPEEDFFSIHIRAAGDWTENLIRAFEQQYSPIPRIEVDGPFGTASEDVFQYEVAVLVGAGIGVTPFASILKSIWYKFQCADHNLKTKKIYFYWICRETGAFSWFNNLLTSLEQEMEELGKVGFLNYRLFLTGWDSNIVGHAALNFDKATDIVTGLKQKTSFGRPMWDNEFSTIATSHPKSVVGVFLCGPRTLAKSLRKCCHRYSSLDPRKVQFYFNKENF
Sequence of Serine/threonine-protein phosphatase (Q9BPW0 whole entry): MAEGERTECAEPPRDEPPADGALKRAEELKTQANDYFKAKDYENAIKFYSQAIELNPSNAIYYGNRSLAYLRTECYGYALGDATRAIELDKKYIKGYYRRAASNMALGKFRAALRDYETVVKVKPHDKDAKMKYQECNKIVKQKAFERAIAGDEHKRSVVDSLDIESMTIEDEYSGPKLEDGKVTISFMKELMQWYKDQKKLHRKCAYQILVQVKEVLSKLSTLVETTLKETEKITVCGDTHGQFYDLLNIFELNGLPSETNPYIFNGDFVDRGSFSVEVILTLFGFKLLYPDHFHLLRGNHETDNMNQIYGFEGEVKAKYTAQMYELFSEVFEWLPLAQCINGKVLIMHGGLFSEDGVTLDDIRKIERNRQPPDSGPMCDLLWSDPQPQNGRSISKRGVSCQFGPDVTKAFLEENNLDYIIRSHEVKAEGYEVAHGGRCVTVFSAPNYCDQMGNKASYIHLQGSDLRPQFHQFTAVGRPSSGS
Sequence of G-protein coupled receptor 35 (Q9HC97 whole entry): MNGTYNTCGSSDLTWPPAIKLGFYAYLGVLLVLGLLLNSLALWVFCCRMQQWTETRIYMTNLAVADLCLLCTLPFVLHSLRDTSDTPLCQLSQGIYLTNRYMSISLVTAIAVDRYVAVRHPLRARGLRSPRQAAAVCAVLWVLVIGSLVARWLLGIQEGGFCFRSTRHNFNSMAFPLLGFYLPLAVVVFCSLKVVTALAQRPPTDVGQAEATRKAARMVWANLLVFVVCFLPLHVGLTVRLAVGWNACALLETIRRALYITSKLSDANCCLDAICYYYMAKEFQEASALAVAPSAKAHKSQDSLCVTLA
Sequence of Ephrin type-A receptor 4 (Q03137 whole entry): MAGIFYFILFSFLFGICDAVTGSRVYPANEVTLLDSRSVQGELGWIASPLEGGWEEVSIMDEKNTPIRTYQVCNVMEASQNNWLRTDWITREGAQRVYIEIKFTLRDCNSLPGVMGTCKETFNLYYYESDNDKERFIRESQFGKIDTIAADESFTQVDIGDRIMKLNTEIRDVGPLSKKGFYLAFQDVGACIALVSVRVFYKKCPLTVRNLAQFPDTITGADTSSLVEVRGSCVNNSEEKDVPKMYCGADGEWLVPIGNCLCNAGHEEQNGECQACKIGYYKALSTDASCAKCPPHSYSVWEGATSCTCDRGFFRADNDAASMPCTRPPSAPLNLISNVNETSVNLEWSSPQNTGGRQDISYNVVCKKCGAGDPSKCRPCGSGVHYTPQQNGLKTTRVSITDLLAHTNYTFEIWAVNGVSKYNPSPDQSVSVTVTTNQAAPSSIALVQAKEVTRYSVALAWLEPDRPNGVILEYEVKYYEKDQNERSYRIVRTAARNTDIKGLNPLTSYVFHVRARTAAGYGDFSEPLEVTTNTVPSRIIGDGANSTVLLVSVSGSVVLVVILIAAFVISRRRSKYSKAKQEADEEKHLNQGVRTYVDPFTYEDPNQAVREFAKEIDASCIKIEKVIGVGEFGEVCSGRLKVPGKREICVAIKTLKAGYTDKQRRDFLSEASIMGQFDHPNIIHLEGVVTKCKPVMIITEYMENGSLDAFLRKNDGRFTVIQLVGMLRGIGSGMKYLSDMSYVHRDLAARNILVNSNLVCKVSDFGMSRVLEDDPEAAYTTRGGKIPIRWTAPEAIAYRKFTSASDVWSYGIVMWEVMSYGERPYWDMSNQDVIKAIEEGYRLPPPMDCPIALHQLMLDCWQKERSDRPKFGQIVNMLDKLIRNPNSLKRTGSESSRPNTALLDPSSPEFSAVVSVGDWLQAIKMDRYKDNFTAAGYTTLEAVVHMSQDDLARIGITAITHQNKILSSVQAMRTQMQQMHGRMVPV

As for `Cc1cc(C=C2C(=O)N(C)C(=S)N(C)C2=O)c(C)n1C1CCCCC1`, the IC50 at Ephrin type-A receptor 4 was 5.14 µM (active).

Regarding `Fc1nc(F)c(F)c(N/N=C/c2ccc(Br)cc2)c1F`, the IC50 against NADPH oxidase 1 was > 17 µM (not active).

Consider `NCCCNc1nc(N)c([N+](=O)[O-])c(NC2CCCCC2)n1`, for which the IC50 is 6 µM (active) in the assay on Vero [1] and 8.89 µM (active) with Vero [5]. Further, the 50% cytotoxic concentration (CC50) with Vero [2] was 13.4 µM (active); in assay [3] it was 18.2 µM (active); with Vero [6] it was 11.6 µM (active). In addition, in [4], the AC50 was 6.36 µM (active).

Take `COc1cccc(F)c1C(C[N+](=O)[O-])c1c(N)n(C)c(=O)n(C)c1=O` (stereo unspecified): the IC50 in “cells” was 5.94 µM (active); in assay [13], 1.06 µM (active). Also, the AC50 in assay [7] was 3.91 µM (active); with INS1, 7.85 µM (active). Moreover, the EC50 was 5.27 µM (active) in assay [8] and 0.779 µM (active) in [11]. Further, the CC50 was 7.28 µM (active) in [9], 4.73 µM (active) in [10], 16.2 µM (active) in assay [12] and 8.24 µM (active) in the assay on Vero [6].

Turning to `COc1ccc(Cn2c(N)c(C(=O)NCc3ccco3)c3nc4ccccc4nc32)cc1OC`, the IC50 is > 67 µM (not active) in [14] and 46.5 µM (not active) in [15].

Turning to `CCOC(=O)c1ccc(NC(=O)CCCN2C(=O)/C(=C/c3ccc(C)cc3)SC2=S)cc1`, the IC50 in assay [16] was > 100 µM (inactive); in [17], 21.4 µM (not active); in [18], > 100 µM (inactive); in assay [19], > 100 µM (inactive); in [20], 96.4 µM (active); in assay [21], > 32 µM (inactive).
